Laboratory results from US20240132478A1, “COCRYSTAL” (Syndesi Therapeutics SA, priority 2020, published 2024).
“Also recorded” adds a separate entry of the source. Like-named read-outs stand apart in the source and are kept apart here.

How the values were obtained:
Format in all cases: physicochemical
[1] = Gravimetric Vapour Sorption (GVS) moisture sorption isotherm
Protocol: Sorption isotherms were obtained using a SMS DVS Intrinsic moisture sorption analyser, controlled by DVS Intrinsic Control software. The sample temperature was maintained at 25° C. by the instrument controls. The humidity was controlled by mixing streams of dry and wet nitrogen, with a total flow rate of 200 ml/min. The relative humidity was measured by a calibrated Rotronic probe (dynamic range of 1.0-100% RH), located near the sample. The weight change, (mass relaxation) of the sample as a function of % RH was constantly monitored by a microbalance (accuracy ±0.005 mg). Typically, 5-30 mg of sample was placed in a tared mesh stainless steel basket under ambient conditions. The sample was loaded and unloaded at 40% RH and 25° C. (typical room conditions). A moisture sorption isotherm was performed as outlined below (2 scans per complete cycle). The standard isotherm was performed at 25° C. at 10% RH intervals over a 0-90% RH range. Typically, a double cycle (4 scans) was carried out. Data analysis was carried out within Microsoft Excel using the DVS Analysis Suite.
The sample was recovered after completion of the isotherm and re-analysed by XRPD.

[2] = Differential Scanning Calorimetry (DSC); conditions: * = multiple thermal events
Protocol: TA Instruments Q2000: DSC data were collected on a TA Instruments Q2000 equipped with a 50 position auto sampler. Typically, 0.5 3 mg of each sample, in a pin-holed aluminium pan, was heated at 10° C./min from 25° C. to 235° C. A purge of dry nitrogen at 50 mlmL/min was maintained over the sample. The instrument control software was Advantage for Q Series and Thermal Advantage and the data were analysed using Universal Analysis or TRIOS.
TA Instruments Discovery DSC: DSC data were also collected on a TA Instruments Discovery DSC equipped with a 50 position auto-sampler. Typically, 0.5 3 mg of each sample, in a pin-holed aluminium pan, was heated at 10° C./min from 25° C. to 235° C. A purge of dry nitrogen at 50 mlmL/min was maintained over the sample. The instrument control software was TRIOS and the data were analysed using TRIOS or Universal Analysis.

[3] = Storage stability at elevated temperature and humidity (XRPD and HPLC purity after storage)
Protocol: Bruker AXS D8 Advance: XRPD diffractograms were collected on a Bruker D8 diffractometer using Cu Kα radiation (40 kV, 40 mA) and a θ-2θ goniometer fitted with a Ge monochromator. The incident beam passes through a 2.0 mm divergence slit followed by a 0.2 mm anti-scatter slit and knife edge. The diffracted beam passes through an 8.0 mm receiving slit with 2.5° Soller slits followed by the Lynxeye Detector. The software used for data collection and analysis was Diffrac Plus XRD Commander and Diffrac Plus EVA respectively. Samples were run under ambient conditions as flat plate specimens using powder as received. The sample was prepared on a polished, zero-background (510) silicon wafer by gently pressing onto the flat surface or packed into a cut cavity. The sample was rotated in its own plane. The details of the data collection method are: • Angular range: 2 to 42° 2θ • Step size: 0.05° 2θ • Collection time: 0.5 s/step (total collection time: 6.40 min)
Purity analysis was performed on an Agilent Ip 100/Infinity 111260 series system equipped with a diode array detector and using OpenLAB software. The full method details are provided below:
The three potential cocrystals were characterised using DSC, 1H NMR, TGA and by evaluating their stability with XRPD after 7 or 8 days of being stored at 40° C./75% RH. All three cocrystals were unchanged by XRPD after storage at 40° C./75% RH and none had significant amounts of solvent present (Table 28). The 4 HBA cocrystal appeared to have a similar melt to the starting material (ca. 85° C.). […] All initially appeared to have a 1:1 stoichiometry. […]

[4] = Solubility assessment in solvents (visual); conditions: for solubility: read-out: Observations from solubility assessment
Protocol: API (25 mg) was dispensed to a PLC vial with a magnetic stirrer. At room temperature an aliquot of solvent was added (5 vol.=125 μL) and stirred at 25° C. for at least 5 minutes. A visual assessment was made. Solutions were held at 25° C. and suspensions were placed at 50° C. with stirring for at least 5 minutes. A visual assessment was made and if a suspension was observed, further aliquots of solvent were added at 25° C. and the above steps repeated until a maximum of 50 volumes were added (Table 7).

[5] = Storage stability at elevated temperature and humidity (XRPD and HPLC purity after storage); remark: listed apart in the source

Hygroscopicity ([1]; in words, by GVS): not hygroscopic | Melting point (onset) [2]: 85.3 °C | XRPD after storage ([3]; 40° C./75% RH): Unchanged | Stability at 25° C./97% RH and 40° C./75% RH ([3]; XRPD after storage): Stable, | solubility ([4]; 1,4-dioxane, 25 °C, organic solvent or mixture, thermodynamic from solid, 1,4-Dioxane, 5 vol, 25° C.): > 200 mg/mL | solubility ([4]; 2-methyl-1-propanol, 25 °C, organic solvent or mixture, thermodynamic from solid, 2-methyl-1-propanol, 5 vol, 25° C.): < 200 mg/mL | solubility ([4]; 2-methyl-1-propanol, 50 °C, organic solvent or mixture, thermodynamic from solid, 2-methyl-1-propanol, 5 vol, 50° C.): > 200 mg/mL | solubility ([4]; 2-propanol, 25 °C, organic solvent or mixture, thermodynamic from solid, 2-Propanol, 5 vol, 25° C.): < 200 mg/mL | solubility ([4]; 2-propanol, 50 °C, organic solvent or mixture, thermodynamic from solid, 2-Propanol, 5 vol, 50° C.): > 200 mg/mL | solubility ([4]; IPA:water (9:1 v/v), 25 °C, organic solvent or mixture, thermodynamic from solid, IPA:Water (9:1 v/v), 5 vol, 25° C.): < 200 mg/mL | solubility ([4]; IPA:water (9:1 v/v), 50 °C, organic solvent or mixture, thermodynamic from solid, IPA:Water (9:1 v/v), 5 vol, 50° C.): > 200 mg/mL | solubility ([4]; IPAC, 25 °C, organic solvent or mixture, thermodynamic from solid, IPAC, 5 vol, 25° C.): > 200 mg/mL | solubility ([4]; MEK, 25 °C, organic solvent or mixture, thermodynamic from solid, MEK, 5 vol, 25° C.): > 200 mg/mL | solubility ([4]; MIBK, 25 °C, organic solvent or mixture, thermodynamic from solid, MIBK, 5 vol, 25° C.): > 200 mg/mL | solubility ([4]; TBME, 25 °C, organic solvent or mixture, thermodynamic from solid, TBME, 5 vol, 25° C.): < 200 mg/mL | solubility ([4]; TBME, 25 °C, organic solvent or mixture, thermodynamic from solid, TBME, 10 vol, 25° C.): < 100 mg/mL | solubility ([4]; TBME, 50 °C, organic solvent or mixture, thermodynamic from solid, TBME, 5 vol, 50° C.): < 200 mg/mL | solubility ([4]; TBME, 50 °C, organic solvent or mixture, thermodynamic from solid, TBME, 10 vol, 50° C.): > 100 mg/mL | solubility ([4]; acetone, 25 °C, organic solvent or mixture, thermodynamic from solid, Acetone, 5 vol, 25° C.): > 200 mg/mL | solubility ([4]; acetone:water (95:5 v/v), 25 °C, organic solvent or mixture, thermodynamic from solid, Acetone:water (95:5 v/v), 5 vol, 25° C.): < 200 mg/mL | solubility ([4]; acetone:water (95:5 v/v), 50 °C, organic solvent or mixture, thermodynamic from solid, Acetone:water (95:5 v/v), 5 vol, 50° C.): > 200 mg/mL | solubility ([4]; acetonitrile, 25 °C, organic solvent or mixture, thermodynamic from solid, Acetonitrile, 5 vol, 25° C.): > 200 mg/mL | solubility ([4]; diethyl ether, 25 °C, organic solvent or mixture, thermodynamic from solid, Diethyl ether, 5 vol, 25° C.): < 200 mg/mL | solubility ([4]; diethyl ether, 25 °C, organic solvent or mixture, thermodynamic from solid, Diethyl ether, 10 vol, 25° C.): < 100 mg/mL | solubility ([4]; diethyl ether, 25 °C, organic solvent or mixture, thermodynamic from solid, Diethyl ether, 50 vol, 25° C.): > 20 mg/mL | solubility ([4]; ethanol, 25 °C, organic solvent or mixture, thermodynamic from solid, Ethanol, 5 vol, 25° C.): < 200 mg/mL | solubility ([4]; ethanol, 50 °C, organic solvent or mixture, thermodynamic from solid, Ethanol, 5 vol, 50° C.): > 200 mg/mL | solubility ([4]; ethanol:water (9:1 v/v), 25 °C, organic solvent or mixture, thermodynamic from solid, Ethanol:Water (9:1 v/v), 5 vol, 25° C.): > 200 mg/mL | solubility ([4]; ethyl acetate, 25 °C, organic solvent or mixture, thermodynamic from solid, Ethyl acetate, 5 vol, 25° C.): > 200 mg/mL | Solubility in organic solvents ([4]; most of the organic solvents tested, water, diethyl ether and n-heptane are the exceptions): good solubility | solubility ([4]; n-heptane, 25 °C, organic solvent or mixture, thermodynamic from solid, n-heptane, 5 vol, 25° C.): < 200 mg/mL | solubility ([4]; n-heptane, 50 °C, organic solvent or mixture, thermodynamic from solid, n-heptane, 5 vol, 50° C.): < 200 mg/mL | solubility ([4]; n-heptane, 50 °C, organic solvent or mixture, thermodynamic from solid, n-heptane, 50 vol, 50° C.): < 20 mg/mL | solubility ([4]; nitromethane, 25 °C, organic solvent or mixture, thermodynamic from solid, Nitromethane, 5 vol, 25° C.): > 200 mg/mL | solubility ([4]; tetrahydrofuran, 25 °C, organic solvent or mixture, thermodynamic from solid, Tetrahydrofuran, 5 vol, 25° C.): > 200 mg/mL | solubility ([4]; toluene, 25 °C, organic solvent or mixture, thermodynamic from solid, Toluene, 5 vol, 25° C.): < 200 mg/mL | solubility ([4]; toluene, 50 °C, organic solvent or mixture, thermodynamic from solid, Toluene, 5 vol, 50° C.): > 200 mg/mL | solubility ([4]; water, 25 °C, water, thermodynamic from solid, Water, 5 vol, 25° C.): < 200 mg/mL | solubility ([4]; water, 25 °C, water, thermodynamic from solid, Water, 10 vol, 25° C.): < 100 mg/mL | solubility ([4]; water, 25 °C, water, thermodynamic from solid, Water, 50 vol, 25° C.): < 20 mg/mL | solubility ([4]; water, 50 °C, water, thermodynamic from solid, Water, 5 vol, 50° C.): < 200 mg/mL | solubility ([4]; water, 50 °C, water, thermodynamic from solid, Water, 10 vol, 50° C.): < 100 mg/mL | solubility ([4]; water, 50 °C, water, thermodynamic from solid, Water, 50 vol, 50° C.): < 20 mg/mL | XRPD after storage ([5]; 25° C./97% RH): XRPD - Unchanged | Purity after storage ([5]; 25° C./97% RH, 7 days): Purity - 7 days: 99.5%, 14 days: 99.5% | Purity after storage ([5]; 25° C./97% RH, 14 days): Purity - 7 days: 99.5%, 14 days: 99.5% | Stability after storage ([5]; 14 days at 25° C./75% RH): stable | Stability after storage ([5]; 14 days at 40° C./97% RH): stable
SMILES: O=C1C[C@H](c2cc(F)c(F)c(F)c2)CN1Cn1ncnc1Cl [API, (4R)-1-[(5-chloro-1H-1,2,4-triazol-1-yl)methyl]-4-(3,4,5-trifluorophenyl)pyrrolidin-2-one]
XRPD post-GVS ([1]; sample re-analysed by XRPD after isotherm): no form change observed; also recorded: Unchanged by XRPD post-GVS | Purity after storage ([5]; 40° C./75% RH, 7 days): Purity - 7 days: 99.5%, 14 days: 99.5% XRPD - | Purity after storage ([5]; 40° C./75% RH, 14 days): Purity - 7 days: 99.5%, 14 days: 99.5% XRPD -
